Measurements from patent US20240391862A1, “(1,4,5-TRISUBSTITUTED-1H-PYRAZOL-3-YL)OXY-2-ALKOXY ALKYL ACIDS AND THEIR DERIVATIVES, THEIR SALTS AND THEIR USE AS HERBICIDAL AGENTS” (Bayer AKtiengesellschaft, priority 2021, published 2024).

Columns and labels:
various unwanted plants [1] = assay: Pre-emergence effect against various unwanted plants (PE): comparative test of I-01 with compounds from WO2020/245044 (Tables 40a, 40b) and summary statements; assay type: in vivo; details: comparative test
Source text: Seeds of monocotyledonous and dicotyledonous weed plants and crop plants are placed in plastic or organic planting pots and covered with soil. The compounds of the invention, formulated in the form of wettable powders (WP) or as emulsion concentrates (EC), are then applied to the surface of the covering soil as aqueous suspension or emulsion with addition of 0.5% additive at a water application rate equivalent to 600 l/ha. After the treatment, the pots are placed in a greenhouse and kept under good growth conditions for the trial plants. After about 3 weeks, the effect of the preparations is scored visually in comparison with untreated controls as percentages. For example, 100% activity=the plants have died, 0% activity=like control plants. Tables 40a and 40b below show the effects of the inventive compound (I-01) with structurally similar compounds (from WO2020/245044) on various harmful plants at an application rate corresponding to 320 g/ha or less, which have been obtained by the trial procedure specified hereinafter. The inventive compound (I-01) differs here by variance of a significant structural feature from the structurally similar compound with regard to the R^2 radical. Seeds of monocotyledonous and dicotyledonous weed plants and crop plants are placed in plastic or organic planting pots and covered with soil. The compounds of the invention, formulated in the form of wettable powders (WP) or as emulsion concentrates (EC), are then applied to the surface of the covering soil as aqueous suspension or emulsion with addition of 0.5% additive at a water application rate equivalent to 600 l/ha. After the treatment, the pots are placed in a greenhouse and kept under good growth conditions for the trial plants. After about 3 weeks, the effect of the preparations is scored visually in comparison with untreated controls as percentages. For example, 100% activity=the plants have died, 0% activity=like control plants. Effects/crop compatibilities of selected compounds (Table 39) on various harmful plants at an application rate corresponding to 80 to 320 g/ha that have been obtained by the trial procedure specified hereinabove are shown in Tables 40a and 40b below.

various unwanted plants [2] = assay: Post-emergence effect against various unwanted plants (PO): comparative test of I-01 with compounds from WO2020/245044 (Tables 41a, 41b) and summary statements; assay type: in vivo; details: comparative test
Protocol: Seeds of monocotyledonous and dicotyledonous weeds and crop plants are placed in sandy loam in plastic or organic planting pots, covered with soil and cultivated in a greenhouse under controlled growth conditions. 2 to 3 weeks after sowing, the trial plants are treated at the one-leaf stage. The compounds of the invention, formulated in the form of wettable powders (WP) or as emulsion concentrates (EC), are then sprayed onto the green parts of the plants as aqueous suspension or emulsion with addition of 0.5% additive at a water application rate of 600 l/ha (converted). After the test plants have been kept in the greenhouse under optimum growth conditions for about 3 weeks, the activity of the preparations is rated visually in comparison to untreated controls. For example, 100% activity=the plants have died, 0% activity=like control plants. […] Tables 41a and 41b below show the effects of the inventive compound (I-01) with structurally similar compounds (WO2020/245044) on various harmful plants at an application rate corresponding to 320 g/ha or less, which have been obtained by the trial procedure specified hereinafter. The inventive compound (I-01) differs here by variance of a significant structural feature from the structurally similar compound with regard to the R^2 radical. Seeds of monocotyledonous and dicotyledonous weeds and crop plants are placed in sandy loam in plastic or organic planting pots, covered with soil and cultivated in a greenhouse under controlled growth conditions. 2 to 3 weeks after sowing, the trial plants are treated at the one-leaf stage. The compounds of the invention, formulated in the form of wettable powders (WP) or as emulsion concentrates (EC), are then sprayed onto the green parts of the plants as aqueous suspension or emulsion with addition of 0.5% additive at a water application rate of 600 l/ha (converted). After the test plants have been kept in the greenhouse under optimum growth conditions for about 3 weeks, the activity of the preparations is rated visually in comparison to untreated controls. For example, 100% activity=the plants have died, 0% activity=like control plants. Effects/crop compatibilities of selected compounds (see Table 39) on various harmful plants at an application rate corresponding to 80 to 320 g/ha that have been obtained by the trial procedure specified hereinafter are shown in Tables 41a and 41b below.

Compound: CCCC(Oc1nn(-c2ccccc2F)c(-c2ccc(F)nc2)c1Br)C(=O)OCC (centres unmarked) [A]
- Pre-emergence effect, Effect %, ALOMY (various unwanted plants [1]; 320 g/ha): 60%
- Pre-emergence effect, Effect %, ECHCG (various unwanted plants [1]; 80 g/ha): 0%
- Pre-emergence effect, Effect %, ECHCG (various unwanted plants [1]; 320 g/ha): 80%
- Pre-emergence effect, Effect %, LOLRI (various unwanted plants [1]; 80 g/ha): 20%
- Pre-emergence effect, Effect %, LOLRI (various unwanted plants [1]; 320 g/ha): 30%
- Pre-emergence effect, Effect %, MATIN (various unwanted plants [1]; 80 g/ha): 0%
- Pre-emergence effect, Effect %, MATIN (various unwanted plants [1]; 320 g/ha): 30%
- Pre-emergence effect, Effect %, POLCO (various unwanted plants [1]; 80 g/ha): 20%
- Pre-emergence effect, Effect %, SETVI (various unwanted plants [1]; 320 g/ha): 70%
- Post-emergence effect, Effect %, ALOMY (various unwanted plants [2]; 80 g/ha): 0%
- Post-emergence effect, Effect %, ALOMY (various unwanted plants [2]; 320 g/ha): 50%
- Post-emergence effect, Effect %, AVEFA (various unwanted plants [2]; 80 g/ha): 30%
- Post-emergence effect, Effect %, AVEFA (various unwanted plants [2]; 320 g/ha): 40%
- Post-emergence effect, Effect %, ECHCG (various unwanted plants [2]; 80 g/ha): 50%
- Post-emergence effect, Effect %, ECHCG (various unwanted plants [2]; 320 g/ha): 80%
- Post-emergence effect, Effect %, LOLRI (various unwanted plants [2]; 80 g/ha): 0%
- Post-emergence effect, Effect %, LOLRI (various unwanted plants [2]; 320 g/ha): 20%
- Post-emergence effect, Effect %, SETVI (various unwanted plants [2]; 80 g/ha): 20%
- Post-emergence effect, Effect %, SETVI (various unwanted plants [2]; 320 g/ha): 70%

Compound: CCOC(=O)COc1nn(-c2ccccc2F)c(-c2ccc(F)nc2)c1Br [B]
- Post-emergence effect, Effect %, ALOMY (various unwanted plants [2]; 80 g/ha): 70%
- Post-emergence effect, Effect %, AVEFA (various unwanted plants [2]; 80 g/ha): 80%
- Post-emergence effect, Effect %, ECHCG (various unwanted plants [2]; 80 g/ha): 50%
- Post-emergence effect, Effect %, LOLRI (various unwanted plants [2]; 80 g/ha): 30%
- Post-emergence effect, Effect %, SETVI (various unwanted plants [2]; 80 g/ha): 70%

Compound: CCOC(=O)C(F)Oc1nn(-c2ccccc2F)c(-c2ccc(F)nc2)c1Br (centres unmarked) [C]
- Pre-emergence effect, Effect %, ALOMY (various unwanted plants [1]; 320 g/ha): 80%
- Pre-emergence effect, Effect %, ECHCG (various unwanted plants [1]; 80 g/ha): 0%
- Pre-emergence effect, Effect %, ECHCG (various unwanted plants [1]; 320 g/ha): 70%
- Pre-emergence effect, Effect %, LOLRI (various unwanted plants [1]; 80 g/ha): 10%
- Pre-emergence effect, Effect %, LOLRI (various unwanted plants [1]; 320 g/ha): 90%
- Pre-emergence effect, Effect %, MATIN (various unwanted plants [1]; 80 g/ha): 70%
- Pre-emergence effect, Effect %, MATIN (various unwanted plants [1]; 320 g/ha): 80%
- Pre-emergence effect, Effect %, POLCO (various unwanted plants [1]; 80 g/ha): 50%
- Pre-emergence effect, Effect %, SETVI (various unwanted plants [1]; 320 g/ha): 70%
- Post-emergence effect, Effect %, ALOMY (various unwanted plants [2]; 80 g/ha): 50%
- Post-emergence effect, Effect %, AVEFA (various unwanted plants [2]; 80 g/ha): 60%
- Post-emergence effect, Effect %, ECHCG (various unwanted plants [2]; 80 g/ha): 80%
- Post-emergence effect, Effect %, LOLRI (various unwanted plants [2]; 80 g/ha): 10%
- Post-emergence effect, Effect %, SETVI (various unwanted plants [2]; 80 g/ha): 70%
